Results published in PMC3933693, “Novel Inhibitors of Mitochondrial sn-Glycerol 3-phosphate Dehydrogenase” (PLoS ONE, 2014).
Values joined by “and” are separate entries in the source; they are usually repeats but may differ in a detail not shown here. Equal values may be shown once.

Assays:
[1] = tested on: skeletal muscle mitochondria; assay: Mitochondrial membrane potential (ΔΨm, TMRM) powered by glutamate plus malate; assay type: biochemical, rat
[2] = tested on: skeletal muscle mitochondria; assay: Mitochondrial membrane potential (ΔΨm, TMRM) powered by glycerol phosphate; assay type: biochemical, rat; conditions: 16.7 mM glycerol phosphate
mGPDH [3] = biological target: T1, mGPDH (Rattus norvegicus, UniProt P35571); assay: mGPDH enzymatic activity (DCPIP-linked reduction by glycerol phosphate) in frozen-thawed skeletal muscle mitochondria; assay type: biochemical
T1 construct: from tissue; host or cells: skeletal muscle mitochondria
T1 sequence (P35571 43-727): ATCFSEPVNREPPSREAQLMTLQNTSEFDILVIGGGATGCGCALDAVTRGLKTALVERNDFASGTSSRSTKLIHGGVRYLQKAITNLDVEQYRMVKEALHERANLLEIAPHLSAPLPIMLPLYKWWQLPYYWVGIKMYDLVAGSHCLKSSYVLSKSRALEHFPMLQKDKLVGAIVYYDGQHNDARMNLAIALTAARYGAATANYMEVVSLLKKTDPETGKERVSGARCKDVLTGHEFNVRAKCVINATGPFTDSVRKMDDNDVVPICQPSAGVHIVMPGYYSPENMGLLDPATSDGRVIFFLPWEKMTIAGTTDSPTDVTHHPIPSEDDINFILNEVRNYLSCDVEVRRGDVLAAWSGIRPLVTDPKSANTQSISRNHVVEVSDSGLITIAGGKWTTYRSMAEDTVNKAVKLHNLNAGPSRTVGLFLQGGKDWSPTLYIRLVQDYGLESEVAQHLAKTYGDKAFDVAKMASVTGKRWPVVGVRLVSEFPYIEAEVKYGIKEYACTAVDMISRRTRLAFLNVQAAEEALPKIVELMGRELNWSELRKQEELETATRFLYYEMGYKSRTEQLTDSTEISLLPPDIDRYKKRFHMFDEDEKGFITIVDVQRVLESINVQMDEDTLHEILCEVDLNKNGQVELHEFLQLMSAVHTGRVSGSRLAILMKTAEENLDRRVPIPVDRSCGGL
Method: Activity of mGPDH in frozen-thawed skeletal muscle mitochondria was measured as 2,6-dichlorophenolindophenol (DCPIP)-linked reduction by glycerol phosphate as described previously in the presence of 1 µM free calcium. Linear rates of change in absorbance (λ = 600 nm) were measured on the PHERAstar microplate reader and converted to rates of DCPIP reduction using an extinction coefficient of 21 mM^−1 ⋅ cm^−1 and a calculated pathlength of 0.6 cm. Kinetic parameters and inhibitor constants were determined by co-varying glycerol phosphate and novel inhibitors according to recommended procedures and calculated for each data set using GraphPad Prism. Vmax and Km were determined using hyperbolic curves fit to the Michaelis-Menten equation: rate = (Vmax ⋅ [substrate]) ⋅ (K m+[substrate])^ −1. Hill Slope and IC50 were determined using unconstrained, sigmoidal dose-response curve fits of % remaining activity against concentration of iGP. K ic and K iu were determined using plots of rate^−1 vs iGP and GP ⋅ rate^−1 vs iGP, respectively. Linear regression analysis yielded an average x-coordinate at which the best-fit lines intersect. These x-coordinates correspond to -K ic and -K iu in their respective plots. The apparent Vmax of mGPDH is dependent upon the concentration of DCPIP used, [38]. Therefore, to determine the maximal activity of mGPDH in isolated synaptosomes, DCPIP was replaced by 1 mM potassium ferricyanide and linear rates of change in absorbance (λ = 420 nm) were converted to rates of ferricyanide reduction using an extinction coefficient of 1.04 mM^−1 ⋅ cm^−1 and a calculated pathlength of 0.6 cm.

[4] = tested on: ubiquinone-binding site of complex I (site IQ); assay: Site-specific H2O2 production from site IQ in skeletal muscle mitochondria; assay type: biochemical, rat; conditions: 80 μM; 5 mM succinate;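 note: H2O2 from superoxide detected by Amplex UltraRed fluorescence with added superoxide dismutase and horseradish peroxidase, endpoint read 30–40 min after substrate addition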
[5] = tested on: skeletal muscle mitochondria; assay: Mitochondrial respiration (Seahorse XF24) in plate-attached skeletal muscle mitochondria; assay type: biochemical, rat
Method: The effects of small-molecule inhibitors on respiration were tested in plate-attached skeletal muscle mitochondria using a Seahorse XF24 Analyzer according to published protocols. Briefly, mitochondria (2 or 4 µg protein) were attached to Seahorse assay plates by centrifugation in a mannitol and sucrose-based medium (Seahorse MAS buffer) containing 0.3% (w/v) BSA without or with 250 nM free calcium at pH 7.0. […] Compounds were added in these media just prior to loading the assay plate into the Seahorse instrument. Additions were made to set respiration in basal state 2 (substrate only), phosphorylating state 3 (5 mM ADP), non-phosphorylating state 4o (0.5 ug ⋅ mL^−1 oligomycin), and to reveal the non-mitochondrial rate (2 µM myxothiazol and 2.5 µM antimycin A). Each concentration of compound was tested in at least two wells on each plate. At least three biological replicates of each titration in each substrate condition were performed.

mGPDH [6] = biological target: T1, mGPDH; assay: Superoxide/H2O2 production by mGPDH in isolated skeletal muscle mitochondria (Amplex UltraRed); assay type: biochemical
[7] = biological target: T2, flavin site of complex II (site IIF) (Rattus norvegicus, UniProt Q920L2); assay: Site-specific H2O2 production from site IIF in skeletal muscle mitochondria; assay type: biochemical; conditions: 0.5 mM succinate, rotenone, myxothiazol, antimycin A; Fig. 2B
T2 construct: from tissue; host or cells: skeletal muscle mitochondria
T2 sequence (Q920L2 35-656): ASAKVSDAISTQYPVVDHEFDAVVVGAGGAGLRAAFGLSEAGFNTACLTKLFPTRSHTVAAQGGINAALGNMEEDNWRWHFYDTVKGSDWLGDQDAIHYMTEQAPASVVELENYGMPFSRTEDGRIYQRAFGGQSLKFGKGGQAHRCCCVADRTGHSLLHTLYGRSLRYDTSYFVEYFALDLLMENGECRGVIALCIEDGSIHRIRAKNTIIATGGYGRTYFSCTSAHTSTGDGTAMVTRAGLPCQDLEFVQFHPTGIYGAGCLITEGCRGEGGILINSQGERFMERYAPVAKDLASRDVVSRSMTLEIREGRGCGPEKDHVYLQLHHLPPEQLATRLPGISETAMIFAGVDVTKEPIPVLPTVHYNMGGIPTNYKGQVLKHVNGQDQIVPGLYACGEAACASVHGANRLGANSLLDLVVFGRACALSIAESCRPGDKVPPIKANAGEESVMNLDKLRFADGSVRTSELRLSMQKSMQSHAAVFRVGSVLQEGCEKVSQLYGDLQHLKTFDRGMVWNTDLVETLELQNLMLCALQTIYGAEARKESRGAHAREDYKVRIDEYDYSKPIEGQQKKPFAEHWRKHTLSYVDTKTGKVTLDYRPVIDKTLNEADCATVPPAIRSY
T2 sequence (P21913 31-282 partner): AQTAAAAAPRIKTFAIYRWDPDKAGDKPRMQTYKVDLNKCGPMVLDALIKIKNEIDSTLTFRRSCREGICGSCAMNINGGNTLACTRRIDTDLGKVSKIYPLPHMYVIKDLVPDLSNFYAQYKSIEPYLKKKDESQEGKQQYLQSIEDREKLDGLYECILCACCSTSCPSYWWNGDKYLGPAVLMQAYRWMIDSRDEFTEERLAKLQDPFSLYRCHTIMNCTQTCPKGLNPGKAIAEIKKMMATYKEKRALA
T2 sequence (Q641Z9 30-169 partner limits assumed): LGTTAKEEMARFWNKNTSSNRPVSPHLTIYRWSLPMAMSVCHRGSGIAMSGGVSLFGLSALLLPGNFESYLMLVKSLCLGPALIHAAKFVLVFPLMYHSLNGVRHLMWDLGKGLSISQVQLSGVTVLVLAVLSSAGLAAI
T2 sequence (Q6PCT8 57-159 partner): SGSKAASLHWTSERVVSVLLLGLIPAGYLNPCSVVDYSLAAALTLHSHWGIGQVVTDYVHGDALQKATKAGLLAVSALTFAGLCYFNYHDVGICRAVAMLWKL
Method: Superoxide was measured as H2O2 after dismutation by endogenous or exogenous superoxide dismutase. Rates of total superoxide/H2O2 production were measured fluorimetrically using Amplex UltraRed in the presence of exogenous superoxide dismutase and horseradish peroxidase in a Varian Cary Eclipse fluorimeter as previously described. Rates of production from specific sites were determined as previously described using the following eight conditions: flavin mononucleotide site of complex I (site IF) plus matrix NAD-linked dehydrogenases (collectively "site IF/DH") with 5 mM glutamate, 5 mM malate, and 4 µM rotenone; ubiquinone-binding site of complex I (site IQ) with either 0.5 or 5 mM succinate; flavin site of complex II (site IIF) with either 15 µM palmitoylcarnitine, 2.5 µM antimycin A, and 2 µM myxothiazol or 0.5 mM succinate, 4 µM rotenone, 2.5 µM antimycin A, and 2 µM myxothiazol, [31]; mGPDH with 1.7 mM glycerol phosphate, 4 µM rotenone, 2.5 µM antimycin A, 2 µM myxothiazol, 1 mM malonate, and 250 nM free calcium; outer ubiquinone-binding site of complex III (site IIIQo) with either 0.5 or 5 mM succinate, 4 µM rotenone and 2.5 µM antimycin A [32]. Candidate small-molecule inhibitors were added prior to the start of measurements and H2O2 calibration curves were performed in the presence of tested compounds.
3,200 compounds were tested initially at 2.5 µM (0.025% DMSO final) in duplicate on different plates against a panel of five distinct assays of site-specific superoxide/H2O2 production as described in the previous section with minor changes. […] Endpoint fluorescence was measured on a Perkin Elmer Victor V3 fluorescent plate reader. The fluorescence intensity of each well was normalized as % change from the average of eight DMSO controls on the same plate. Duplicate wells of each of four modulators of mitochondrial metabolism known to inhibit specific sites of superoxide/H2O2 production were included on each plate as positive controls and the resulting fluorescence levels set as −100% change from DMSO controls. Known inhibitors included 20 mM aspartate (for site IF/DH), 1 µM FCCP (for site IQ), 10 mM malonate (for site IIF), and 2 µM myxothiazol (for site IIIQo). The background fluorescence of the FCCP wells in the site IQ assay was used to normalize mGPDH plates run in parallel. To minimize position-dependent effects across each assay plate, Tukey’s two-way median polish was applied to fluorescence values after initial normalization, [36]. Tukey’s polish is an iterative subtraction of the median row and column values from each well’s given row or column. The procedure is repeated until sequential medians for each row and column are zero and positional gradients in fluorescence are eliminated.

[8] = tested on: skeletal muscle mitochondria; assay: Mitochondrial membrane potential (ΔΨm, TMRM) powered by succinate; assay type: biochemical, rat; conditions: 2.5 mM; 5 mM succinate, rotenone, nigericin
Method: Mitochondrial membrane potential (ΔΨm) was estimated fluorimetrically as described previously on the Varian fluorimeter, except the potentiometric dye TMRM was used in quench-mode in place of safranine O [34]. […] The effect of putative small-molecule inhibitors was normalized as the % change in fluorescence between vehicle treatment and complete depolarization by the uncoupler carbonyl cyanide-4-(trifluoromethoxy)phenylhydrazone (FCCP, 2 µM) added at the end of each run. When indicated, the K^+/H^+ exchanger nigericin (80 ng ⋅ ml^−1) was added to collapse the pH gradient across the mitochondrial inner membrane (ΔpH) and maximize ΔΨm.
The assay buffer for both H2O2 and ΔΨm measurements was 120 mM KCl, 5 mM HEPES, 1 mM EGTA, 0.3% (w/v) BSA without or with 250 nM free calcium at pH 7.0. All assays were performed with stirring at 37°C.
Structure/activity analysis was performed on 18 structural analogs of two structurally-related hits from the primary screen (iGP-1 and iGP-2). These 20 compounds were tested in duplicate at 0.08–80 µM (0.1% DMSO final) in microplate format for effects on site-specific H2O2 production as described above. Additionally, four microplate assays for ΔΨm were run in parallel to the H2O2 assays. These assays were as described under “Measurement of mitochondrial H2O2 production and membrane potential” except that each substrate condition was assayed in a separate microplate. […] Plates were incubated in the dark at room temperature for 30–40 min (H2O2) or 10–15 min (ΔΨm) after the addition of substrate, and endpoint fluorescence was measured on the Victor plate reader. Endpoints were chosen for the H2O2 assays to provide good signal-to-noise ratios and linear rates of change without the indicator dye limiting the reaction. Endpoints for the ΔΨm assays were determined in pilot experiments as the times for TMRM accumulation to reach a steady state. […] Endpoint fluorescence values were normalized as described in the previous section with wells containing FCCP serving as positive controls for the ΔΨm assays.

| mGPDH Activity Hill Slope (mGPDH [3]; 1 µM free calcium) | IC50 (mGPDH [3]; 1 µM free calcium, Fig. 9A) | K iu (uncompetitive inhibitor dissociation constant) (mGPDH [3]; co-varying glycerol phosphate and inhibitor) | Ki (mGPDH [3]; co-varying glycerol phosphate and inhibitor, read-out: K ic (competitive inhibitor dissociation constant)) | IC50 (mGPDH [6]; Fig. 4 structure/activity microplate assay, 0.08–80 µM, estimated, means of two replicates, read-out: mGPDH H2O2 production IC50) | IC50 (mGPDH [6]; Fig. 9B, read-out: mGPDH H2O2 Production IC50) | inhibition at 80 µM (mGPDH [6]; read-out: mGPDH H2O2 production (% change at 80 μM)) | IC50 (mGPDH [6]; titration up to 80 µM (Fig. 6B, Fig. 7B), read-out: half-maximal effect on H2O2 production by mGPDH) | effect on the rate of H2O2 production from site IIF [7] | inhibition at 2500 µM (mGPDH [6]; 2.5 mM, 1.7 mM glycerol phosphate, 250 nM free calcium, read-out: inhibition of the rate of H2O2 production from mGPDH) | Compound | effect on ΔΨm powered by glutamate and malate ([1]; 25 µM, only in the absence of nigericin) | ΔΨm with Glu + Mal + Nig (% change at 80 μM) ([1]; 80 μM, 5 mM glutamate, 5 mM malate, with nigericin) | ΔΨm with Glu + Mal (% change at 80 μM) ([1]; 80 μM, 5 mM glutamate, 5 mM malate, without nigericin) | ΔΨm with GP + Nig (% change at 80 μM) ([2]; 80 μM, 4 µM rotenone, nigericin) | effect on ΔΨm powered by glycerol phosphate ([2]; 2.5 and 25 µM) | IQ H2O2 production with 5 mM Suc (% change at 80 μM) [4] | effect on state 3 respiration with pyruvate and malate ([5]; 80 µM) | effect on glycerol phosphate-dependent state 3 respiration ([5]; 25 and 80 µM) | effect on ΔΨm powered by succinate [8] | effect on ΔΨm powered by glycerol phosphate ([2]; all concentrations tested, rotenone, atpenin A5, nigericin) |
| --- | --- | --- | --- | --- | --- | --- | --- | --- | --- | --- | --- | --- | --- | --- | --- | --- | --- | --- | --- | --- |
| 0.85 and 0.85±0.07 | 1000 ± 200 nM | 1.1 ± 0.0 µM | 700 nM | 700 nM | 1000 ± 100 nM | 65% | ~1000 nM | – | – | O=C(O)CCC(=O)Nc1ccc(-c2nc3cc4ccccc4cc3[nH]2)cc1 [iGP-5] | significantly increased | 20% | 106% | -26% | significantly decreased | -9% | significantly reduced | significantly decreased | – | – |
| – | – | – | – | – | – | – | – | significantly inhibited | ~80% | O=CC(O)COP(=O)(O)O (centres unmarked) [glyceraldehyde 3-phosphate, reference compound] | – | – | – | – | – | – | – | – | significantly increased | significantly decreased |
